# Measured values from publication PMC12198282, “Application of a high-density microelectrode array assay using a 3D human iPSC-derived brain microphysiological system model for in vitro neurotoxicity screening of environmental compounds” (Archives of Toxicology, 2025).
# Entries after “also recorded” stand apart in the source; their conditions may differ. Like-named read-outs stand apart in the source and are kept apart here.
# Assays:
# [1] = system: human iPSC-derived 3D BrainSpheres; assay: BrainSphere MEA assay (HD-MEA, 13-day exposure, concentration-response); type: cell-based; details: for EC (benchmark response 1.349 SD): 312 h; for AC50: concentration at 50% maximal activity, Supplement 3 prints it also for curves with hit call 0; as to hitc Mean.Spheroid.Burst.Duration: key: 1 (active); 0 (inactive); as to hitc Mean.Spheroid.Burst.ISI: key: 1 (active); 0 (inactive); as to hitc Mean.Spheroid.Burst.Peak.Firing.Rate: key: 1 (active); 0 (inactive); as to hitc Mean.Spheroid.Firing.Rate: key: 1 (active); 0 (inactive); as to hitc Mean.Spheroid.IBI: key: 1 (active); 0 (inactive); as to hitc Mean.Spheroid.Nonburst.ISI: key: 1 (active); 0 (inactive); as to hitc Mean.Spheroid.Spikes.per.Burst.per.Electrode: key: 1 (active); 0 (inactive); as to hitc Mean.Spheroid.Spikes.per.Burst: key: 1 (active); 0 (inactive); as to hitc Spheroid.Burst.Frequency: key: 1 (active); 0 (inactive); as to hitc Spheroid.Spike.Amplitude.90th.Percentile: key: 1 (active); 0 (inactive)
# Procedure: A volume of 1 ml of Tergazyme (1% solution in deionized water) was added to each well of the MaxTwo 6-Well Plate (MaxWell Biosystems) and incubated overnight under constant gyratory shaking (88 RPM) at 37 °C and 5% CO2. The next day, Tergazyme solution was removed, and plates were washed with distilled water and ethanol. After remaining ethanol was evaporated, wells were washed with PBS. Then, 200 µl of Poly-D-Lysine (Gibco, A38904 - 01) was added on top of the electrodes and incubated at 37 °C and 5% CO2 for 3 h (humidified). Poly-D-Lysine was then removed, and wells were coated with 100 µl of 0.1 mg/ml laminin coating solution (Sigma-Aldrich, L2020 - 1 mg) and incubated for 2 h at 37 ℃ and 5% CO2 (humidified). The laminin was removed after incubation. Using a 1 ml micropipette, 1 ml of medium containing BrainSpheres (7 weeks differentiated), approximately 25 BrainSpheres per ml, was plated on top of the HD-MEA chip (Fig. 1A). Afterwards, the plate was placed in an incubator at 37 °C and 5% CO2 and moved in circles to accumulate the BrainSpheres on top of the electrode area (Fig. 1A). The plate was kept in an incubator (humidified) for 2 days to allow attachment of the BrainSpheres with no gyratory shaking of the plates.
# The MaxTwo high-density microelectrode array system (MaxWell Biosystems AG, Zurich, Switzerland) was used to measure neural activity with MaxTwo 6-well plates, where every well includes an integrated chip with 26,400 platinum electrodes arranged in an area of 3.85 × 2.10 mm^2 ([…]) (Muller et al. [2015]). The data were recorded and analyzed with the MaxLab Live Software (version 22.2.22). First, the MaxLab live ActivityScan Assay was used to identify the activity and positioning of the BrainSpheres on the array by scanning all the 26,400 electrodes in 29 configurations in a well (Assay Parameters: Configuration = Full; Recording time per configuration = 60 s (s)). The settings gain = 512, high-pass-filter (HPF): ~ 1 Hz and spike threshold = 5 X root-mean square (RMS) noise were used for all HD-MEA recordings. Circular regions of interest (ROI) were manually selected in the Activity Map where neuronal activity was apparent by an increased activity (Fig. 2). Over the course of the 13-day experiment, the same selected regions and electrodes were measured using the MaxLab Live Network Assay (600 s recording time).
# A custom analysis framework was used to extract the MaxLab Live neuronal metrics for the individual BrainSpheres. For this, electrodes comprising a single ROI (i.e., individual BrainSphere; Fig. 2D) were grouped using distance-based clustering (fcluster method of Scipy library, Python 3.7) and neural metrics were calculated for the clustered electrodes for every ROI separately. Figure 2E presents a raster plot illustrating the activity associated with individual Regions of Interest (ROIs). […] Ten MaxLab Live neural metrics (endpoints) were evaluated from the MaxLab live ActivityScan and Network Assay in this study. See Table 3 for the endpoint definitions, tuned parameters, and activity type (general versus network connectivity).
# The BrainSphere MEA assay measured changes in neural activity during a 13-day chemical exposure. The first recording day of the concentration–response screening protocol (day of exposure (DOE) 0) occurred after 7 weeks of BrainSphere differentiation, 48 h after plating on HD-MEA plates (Fig. 1B). The study included at least three biological replicates (one well per plate) from separate experiments (e.g., three different plates on three different days) and each well included multiple BrainSpheres which were considered technical replicates.
# 2D rat cortical cultures = details: rNFA mc5 hit call; cytotoxicity LDH; cited from earlier work
# [2] = AUC over 13-day exposure, tcplfit2
# [3] = Homo sapiens, tcplfit2 BMD at benchmark response (1.349*SD of baseline controls), read-out: BMD Mean.Spheroid.Burst.ISI
# [4] = Homo sapiens, tcplfit2 BMD at benchmark response (1.349*SD of baseline controls), read-out: BMD Mean.Spheroid.Nonburst.ISI
# [5] = Homo sapiens, read-out: ac50 Mean.Spheroid.Burst.Duration
# [6] = Homo sapiens, read-out: ac50 Mean.Spheroid.Burst.ISI
# [7] = Homo sapiens, read-out: ac50 Spheroid.Burst.Frequency
# [8] = tcplfit2 BMD at benchmark response (1.349*SD of baseline controls)
# [9] = tcplfit2 output ACC, activity cutoff in Supplemental Table 1
structure (smiles),measurement,setting,value
CC1(C)[C@H](C(=O)O[C@H](C#N)c2cccc(Oc3ccccc3)c2)[C@@H]1C=C(Br)Br [Deltamethrin],EC50,"[1]; 5th percentile across active AC50 values per chemical, read-out: Minimum potency",1.6 µM
same,Difference of minimum potency between BrainSphere MEA assay and rNFA,"[1]; 5th percentile of AC50 values by chemical, above 0.5 = more potent in the rNFA",≤ 0.5 log10 µM
same,hitc Mean.Spheroid.Burst.Duration,[1]; [2],1
same,hitc Mean.Spheroid.Burst.ISI,[1]; [2],1
same,hitc Mean.Spheroid.Burst.Peak.Firing.Rate,[1]; [2],1
same,hitc Mean.Spheroid.Firing.Rate,[1]; [2],1
same,hitc Mean.Spheroid.IBI,[1]; [2],1
same,hitc Mean.Spheroid.Nonburst.ISI,[1]; [2],1
same,hitc Mean.Spheroid.Spikes.per.Burst,[1]; [2],1
same,hitc Mean.Spheroid.Spikes.per.Burst.per.Electrode,[1]; [2],1
same,hitc Spheroid.Burst.Frequency,[1]; [2],1
same,hitc Spheroid.Spike.Amplitude.90th.Percentile,[1]; [2],1
same,EC50,"[1]; Homo sapiens, 5th percentile across active AC50 values per chemical, read-out: Minimum potency",1 µM
same,EC (benchmark response 1.349 SD),[1]; [3],7.6 µM
same,EC (benchmark response 1.349 SD),[1]; [4],9.4 µM
same,AC50,[1]; [5],3.3 µM
same,AC50,[1]; [6],8.4 µM
same,AC50,"[1]; Homo sapiens, read-out: ac50 Mean.Spheroid.Burst.Peak.Firing.Rate",3.8 µM
same,AC50,"[1]; Homo sapiens, read-out: ac50 Mean.Spheroid.Firing.Rate",3.5 µM
same,AC50,"[1]; Homo sapiens, read-out: ac50 Mean.Spheroid.IBI",10 µM
same,AC50,"[1]; Homo sapiens, read-out: ac50 Mean.Spheroid.Nonburst.ISI",9.8 µM
same,AC50,"[1]; Homo sapiens, read-out: ac50 Mean.Spheroid.Spikes.per.Burst",1.9 µM
same,AC50,"[1]; Homo sapiens, read-out: ac50 Mean.Spheroid.Spikes.per.Burst.per.Electrode",1.4 µM
same,AC50,[1]; [7],5.9 µM
same,AC50,"[1]; Homo sapiens, read-out: ac50 Spheroid.Spike.Amplitude.90th.Percentile",4 µM
same,EC50,"[1]; Homo sapiens, mean across active AC50 values per chemical, read-out: Mean potency",4.45 µM
same,AC50,[1]; read-out: ac50 Mean.Spheroid.Burst.Duration,3.31 µM
same,AC50,[1]; read-out: ac50 Mean.Spheroid.Burst.ISI,8.39 µM
same,AC50,[1]; read-out: ac50 Mean.Spheroid.Burst.Peak.Firing.Rate,3.77 µM
same,AC50,[1]; read-out: ac50 Mean.Spheroid.Firing.Rate,3.49 µM
same,AC50,[1]; read-out: ac50 Mean.Spheroid.IBI,10.4 µM
same,AC50,[1]; read-out: ac50 Mean.Spheroid.Nonburst.ISI,9.81 µM
same,AC50,[1]; read-out: ac50 Mean.Spheroid.Spikes.per.Burst,1.85 µM
same,AC50,[1]; read-out: ac50 Mean.Spheroid.Spikes.per.Burst.per.Electrode,1.4 µM
same,AC50,[1]; read-out: ac50 Spheroid.Burst.Frequency,5.88 µM
same,AC50,[1]; read-out: ac50 Spheroid.Spike.Amplitude.90th.Percentile,3.97 µM
same,EC50,"[1]; mean across active AC50 values per chemical, read-out: Mean potency",5.23 µM
same,Percent active,[1]; metrics active out of the total number of metrics screened,100%
same,BMD Mean.Spheroid.Burst.Duration,[1]; [8],1.9 µM
same,BMD Mean.Spheroid.Burst.Peak.Firing.Rate,[1]; [8],2.4 µM
same,BMD Mean.Spheroid.Firing.Rate,[1]; [8],3.6 µM
same,BMD Mean.Spheroid.IBI,[1]; [8],9.6 µM
same,BMD Mean.Spheroid.Spikes.per.Burst,[1]; [8],1.2 µM
same,BMD Mean.Spheroid.Spikes.per.Burst.per.Electrode,[1]; [8],0.69 µM
same,BMD Spheroid.Burst.Frequency,[1]; [8],6 µM
same,BMD Spheroid.Spike.Amplitude.90th.Percentile,[1]; [8],1.6 µM
same,ACC Mean.Spheroid.Burst.Duration,[1]; [9],1.7 µM
same,ACC Mean.Spheroid.Burst.ISI,[1]; [9],7 µM
same,ACC Mean.Spheroid.Burst.Peak.Firing.Rate,[1]; [9],2.2 µM
same,ACC Mean.Spheroid.Firing.Rate,[1]; [9],5.2 µM
same,ACC Mean.Spheroid.IBI,[1]; [9],10 µM
same,ACC Mean.Spheroid.Nonburst.ISI,[1]; [9],9.6 µM
same,ACC Mean.Spheroid.Spikes.per.Burst,[1]; [9],2 µM
same,ACC Mean.Spheroid.Spikes.per.Burst.per.Electrode,[1]; [9],0.92 µM
same,ACC Spheroid.Burst.Frequency,[1]; [9],5.1 µM
same,ACC Spheroid.Spike.Amplitude.90th.Percentile,[1]; [9],2.2 µM
same,Hits,"[1]; total number of active endpoints out of 10 MEA activity metrics, 13-day exposure",10
same,hitc CCTE_Shafer_MEA_dev_LDH,2D rat cortical cultures,0
CCCC(CCC)C(=O)O [Sodium valproate],Bioactivity across the 10 MEA endpoints of the BrainSphere MEA assay (in words),[1],inactive across all metrics; also recorded: inactive in the BrainSphere MEA
same,EC (benchmark response 1.349 SD),[1]; [3],85 µM
same,EC (benchmark response 1.349 SD),[1]; [4],213 µM
same,AC50,[1]; [5],45 µM
same,AC50,[1]; [6],85 µM
same,AC50,[1]; [7],84 µM
same,hitc CCTE_Shafer_MEA_dev_LDH,2D rat cortical cultures,0
